Key:
[1] = system: bedstraw; assay: Test B pre/postemergence bedstraw; type: in vivo, Galium aparine
In short: (§1)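 Response is a visual 0-to-10 score relative to untreated plants, where 0 means no effect and 10 means complete control, taken twelve to sixteen days after application. Treatments went onto soil at planting and onto foliage of 1- to 4-leaf plants, using a surfactant-containing non-phytotoxic solvent.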

[2] = system: blackgrass; assay: Test B pre/postemergence blackgrass; type: in vivo, Alopecurus myosuroides
In short: as §1

[3] = system: surinam grass; assay: Test B pre/postemergence surinam grass; type: in vivo, Brachiaria decumbens
In short: as §1

[4] = system: cocklebur; assay: Test B pre/postemergence cocklebur; type: in vivo, Xanthium strumarium
In short: as §1

[5] = system: giant foxtail; assay: Test B pre/postemergence giant foxtail; type: in vivo, Setaria faberii
In short: as §1

[6] = system: morningglory; assay: Test B pre/postemergence morningglory; type: in vivo, Ipomoea hederacea
In short: as §1

[7] = system: pigweed; assay: Test B pre/postemergence pigweed; type: in vivo, Amaranthus retroflexus
In short: as §1

[8] = system: rape; assay: Test B pre/postemergence rape; type: in vivo, Brassica napus
In short: as §1

[9] = system: soybean; assay: Test B pre/postemergence soybean; type: in vivo, Glycine max
In short: as §1

[10] = system: velvetleaf; assay: Test B pre/postemergence velvetleaf; type: in vivo, Abutilon theophrasti
In short: as §1

[11] = system: wheat; assay: Test B pre/postemergence wheat; type: in vivo, Triticum aestivum
In short: as §1

[12] = system: wild oat; assay: Test B pre/postemergence wild oat; type: in vivo, Avena fatua
In short: as §1

[13] = system: purple nutsedge; assay: Test B pre/postemergence purple nutsedge; type: in vivo, Cyperus rotundus
In short: as §1

[14] = system: smallflower flatsedge; assay: Test B flood test smallflower flatsedge; type: in vivo, Cyperus difformis
In short: (§2)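 Plants were grown to the 2-leaf stage before treatment with test chemical, then held in a greenhouse for twelve to sixteen days. Injury was visually rated against untreated controls on a 0–10 scale, where 0 is no effect and 10 is complete control.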

[15] = system: duck salad; assay: Test B flood test duck salad; type: in vivo, Heteranthera limosa
In short: as §2

[16] = system: bamyardgrass; assay: Test B flood test barnyardgrass; type: in vivo, Echinochloa crus-galli
In short: as §2

[17] = Preemergence, Rate 62 g/ha, scale of 0 to 10 where 0 is no effect and 10 is complete control
[18] = Preemergence, Rate 250 g/ha, scale 0 to 10, 0 is no effect, 10 is complete control
[19] = Preemergence, Rate 500 g/ha, scale 0 to 10 (0 no effect, 10 complete control)
[20] = Rate 62 g/ha, Postemergence, scale of 0 to 10 where 0 is no effect and 10 is complete control
[21] = Rate 125 g/ha, Postemergence, scale 0 to 10
[22] = Rate 500 g/ha, Postemergence, scale 0 to 10
[23] = Preemergence, Rate 125 g/ha, 0 is no effect, 10 is complete control
[24] = Rate 62 g/ha, headed Pre-emergence (flood test species), scale 0 to 10 (0 no effect, 10 complete control)
[25] = Rate 125 g/ha, Pre-emergence, flood test species, scale 0 to 10 where 0 is no effect and 10 is complete control
[26] = Rate 250 g/ha, Pre-emergence, flood-test species, scale 0 to 10, 0 is no effect, 10 is complete control
[27] = Rate 500 g/ha, headed Pre-emergence (flood test species), scale 0 to 10 (0 no effect, 10 complete control)

CCN(C(=O)n1oc(=O)n(C(C)C)c1=O)c1nncs1 [Compound 190]
Bedstraw plant response rating [1, 17]: 0
Bedstraw plant response rating [1, 18]: 0
Bedstraw plant response rating [1, 19]: 4
Bedstraw plant response rating [1, 20]: 0
Bedstraw plant response rating [1, 21]: 0
Plant response rating (0 to 10; 0 is no effect, 10 is complete control), Bedstraw ([1]; Rate 250 g/ha, Postemergence): 0
Bedstraw plant response rating [1, 22]: 0
Blackgrass plant response rating [2, 17]: 0
Blackgrass plant response rating (0 to 10 scale) [2, 23]: 0
Blackgrass plant response rating [2, 18]: 0
Blackgrass plant response rating [2, 19]: 3
Blackgrass plant response rating [2, 20]: 0
Blackgrass plant response rating [2, 21]: 0
Plant response rating (0 to 10; 0 is no effect, 10 is complete control), Blackgrass ([2]; Rate 250 g/ha, Postemergence): 0
Blackgrass plant response rating [2, 22]: 0
B. signalgrass plant response rating [3, 17]: 0
B. signalgrass plant response rating (0 to 10 scale) [3, 23]: 0
B. signalgrass plant response rating [3, 18]: 0
B. signalgrass plant response rating [3, 19]: 0
B. signalgrass plant response rating [3, 20]: 0
B. signalgrass plant response rating ([3]; Rate 125 g/ha, Postemergence, scale 0 (no effect) to 10 (complete control)): 0
Plant response rating, B. signalgrass ([3]; Rate 250 g/ha, Postemergence, scale 0 to 10, 0 is no effect, 10 is complete control): 0
B. signalgrass plant response rating ([3]; Rate 500 g/ha, Postemergence, scale 0 to 10, 0 no effect, 10 complete control): 0
Cocklebur plant response rating [4, 17]: 0
Cocklebur plant response rating (0 to 10 scale) [4, 23]: 0
Cocklebur plant response rating [4, 18]: 0
Cocklebur plant response rating [4, 19]: 0
Cocklebur plant response rating [4, 20]: 0
Cocklebur plant response rating [4, 21]: 0
Plant response rating (0 to 10; 0 is no effect, 10 is complete control), Cocklebur ([4]; Rate 250 g/ha, Postemergence): 0
Cocklebur plant response rating [4, 22]: 0
Giant foxtail plant response rating [5, 17]: 0
Giant foxtail plant response rating (0 to 10 scale) [5, 23]: 0
Giant foxtail plant response rating [5, 18]: 0
Giant foxtail plant response rating [5, 19]: 0
Giant foxtail plant response rating [5, 20]: 0
Giant foxtail plant response rating [5, 21]: 0
Plant response rating (0 to 10; 0 is no effect, 10 is complete control), Giant foxtail ([5]; Rate 250 g/ha, Postemergence): 0
Giant foxtail plant response rating [5, 22]: 0
Morningglory plant response rating [6, 17]: 0
Morningglory plant response rating (0 to 10 scale) [6, 23]: 0
Morningglory plant response rating [6, 18]: 0
Morningglory plant response rating [6, 19]: 0
Morningglory plant response rating [6, 20]: 0
Morningglory plant response rating [6, 21]: 0
Plant response rating (0 to 10; 0 is no effect, 10 is complete control), Morningglory ([6]; Rate 250 g/ha, Postemergence): 0
Morningglory plant response rating [6, 22]: 0
Redroot pigweed plant response rating [7, 17]: 0
Redroot pigweed plant response rating (0 to 10 scale) [7, 23]: 0
Redroot pigweed plant response rating [7, 18]: 0
Redroot pigweed plant response rating [7, 19]: 0
Redroot pigweed plant response rating [7, 20]: 0
Redroot pigweed plant response rating [7, 21]: 0
Plant response rating (0 to 10; 0 is no effect, 10 is complete control), Redroot pigweed ([7]; Rate 250 g/ha, Postemergence): 0
Redroot pigweed plant response rating [7, 22]: 0
Rape plant response rating [8, 17]: 0
Rape plant response rating (0 to 10 scale) [8, 23]: 0
Rape plant response rating [8, 18]: 0
Rape plant response rating [8, 19]: 0
Rape plant response rating [8, 20]: 0
Rape plant response rating [8, 21]: 0
Plant response rating (0 to 10; 0 is no effect, 10 is complete control), Rape ([8]; Rate 250 g/ha, Postemergence): 0
Rape plant response rating [8, 22]: 0
Soybean plant response rating [9, 17]: 0
Soybean plant response rating (0 to 10 scale) [9, 23]: 0
Soybean plant response rating [9, 18]: 0
Soybean plant response rating [9, 19]: 0
Soybean plant response rating [9, 20]: 0
Soybean plant response rating [9, 21]: 0
Plant response rating (0 to 10; 0 is no effect, 10 is complete control), Soybean ([9]; Rate 250 g/ha, Postemergence): 0
Soybean plant response rating [9, 22]: 0
Velvetleaf plant response rating [10, 17]: 0
Velvetleaf plant response rating [10, 18]: 0
Velvetleaf plant response rating [10, 19]: 0
Velvetleaf plant response rating [10, 20]: 0
Velvetleaf plant response rating [10, 21]: 0
Plant response rating (0 to 10; 0 is no effect, 10 is complete control), Velvetleaf ([10]; Rate 250 g/ha, Postemergence): 0
Wheat plant response rating [11, 17]: 0
Wheat plant response rating [11, 18]: 0
Wheat plant response rating [11, 19]: 0
Wheat plant response rating [11, 20]: 0
Wheat plant response rating [11, 21]: 0
Plant response rating (0 to 10; 0 is no effect, 10 is complete control), Wheat ([11]; Rate 250 g/ha, Postemergence): 0
Wild oats plant response rating [12, 17]: 0
Wild oats plant response rating [12, 18]: 0
Wild oats plant response rating [12, 19]: 0
Wild oats plant response rating [12, 20]: 0
Wild oats plant response rating [12, 21]: 0
Plant response rating (0 to 10; 0 is no effect, 10 is complete control), Wild oats ([12]; Rate 250 g/ha, Postemergence): 0
Nutsedge plant response rating [13, 17]: 0
Nutsedge plant response rating [13, 18]: 0
Nutsedge plant response rating [13, 19]: 0
Nutsedge plant response rating [13, 20]: 0
Nutsedge plant response rating [13, 21]: 0
Plant response rating (0 to 10; 0 is no effect, 10 is complete control), Nutsedge ([13]; Rate 250 g/ha, Postemergence): 0
Nutsedge plant response rating [13, 22]: 0
S. Flatsedge plant response rating [14, 24]: 0
S. Flatsedge plant response rating [14, 25]: 0
S. Flatsedge plant response rating [14, 26]: 0
S. Flatsedge plant response rating ([14]; Rate 500 g/ha, Pre-emergence, flood test species, scale 0 to 10 (0 no effect, 10 complete control)): 0
Ducksalad plant response rating [15, 24]: 0
Ducksalad plant response rating [15, 25]: 0
Ducksalad plant response rating [15, 26]: 0
Plant response rating, Ducksalad [15, 27]: 0
Barnyardgrass plant response rating [16, 24]: 0
Barnyardgrass plant response rating [16, 25]: 0
Barnyardgrass plant response rating [16, 26]: 0
Plant response rating, Barnyardgrass [16, 27]: 0
